Source: patent US9161927B2, “Drug combinations containing PDE4 inhibitors and NSAIDs” (Boehringer Ingelheim International GmbH, priority 2009, dated 2015)
Like-named read-outs stand apart in the source and are kept apart here.

Experiments:
male Wistar rats [1] = assay: Experiment 4: roflumilast-mediated diarrhoea and mesentery histopathology in rats, with or without SC-560 or lumiracoxib; type: in vivo, rat; conditions: affected animals out of animals examined; p.o. for four days, 95 hours after t0; roflumilast 10 mg/kg at 1300, SC-560 or lumiracoxib 2 mg/kg at 0800 and 1700
Method: (§1) Six male Wistar rats in each group were treated for four days with the following substances (all substances are given p.o.=orally):
(§2) Group 1 (“control group”): Six male Wistar rats were given a daily dose of 0.5% Natrosol (placebo) at the times 0800, 1300 and 1700 hours.
(§3) Group 2 (“roflumilast group”): Six male Wistar rats were given a daily dose of 0.5% Natrosol (placebo) at 0800 and 1700 hours and 10 mg/kg roflumilast (PDE4 inhibitor) at 1300 hours.
(§4) Group 6 (“lumiracoxib group”): Six male Wistar rats were given a daily dose of 2 mg/kg lumiracoxib (NSAID, selective for COX-2) at the times 0800 and 1700 hours and 0.5% Natrosol at 1300 hours.
(§5) At the end of the experiment (95 hours after t0 (=the time of the first administration on day 1, 0800 hours)) the rats from the individual groups were examined phenotypically and histopathologically for the presence of multifocal perivascular mononuclear infiltration (=inflammation parameter) in the mesentery and for the proliferation of fibroblasts in the mesentery. In addition, the occurrence of diarrhoea in the rats from the different groups was noted.

male Wistar rats [2] = type: in vivo; conditions: affected animals out of animals examined; p.o. for four days, 95 hours after t0; roflumilast 10 mg/kg at 1300, diclofenac 1 mg/kg at 0800 and 1700
Method: as §1, §2, §3
(§6) Group 3 (“roflumilast+diclofenac group”): Six male Wistar rats were given a daily dose of 1 mg/kg diclofenac (NSAID) at the times 0800 and 1700 hours and 10 mg/kg roflumilast (PDE4 inhibitor) at 1300 hours.
(§7) Group 4 (“diclofenac group”): Six male Wistar rats were given a daily dose of 1 mg/kg diclofenac (NSAID) at the times 0800 and 1700 hours and 0.5% Natrosol (placebo) at 1300 hours.
(§8) For pharmacokinetic analysis (determining the plasma levels of the substances) on day 4 one rat from each group was used; these rats were no longer available for other parameters under investigation.
as §5

male Wistar rats [3] = assay: Experiment 1: roflumilast-mediated weight loss, leukocytosis and neutrophilia in rats, with or without diclofenac
Method: as §1, §2, §3, §6, §7, §8
The average±standard deviation of the body weights at time t0 was 355±17 g.
At the end of the experiment (95 hours after t0 (=the time of the first administration on day 1, 0800)) the proportion of white blood cells (×1000 cells/μl blood, FIG. 1B, left-hand Figure) and the proportion of neutrophils (in % of white blood cells, FIG. 1B, right-hand Figure) were determined from the blood of 4 or 5 of the rats from the individual groups.

male Wistar rats [4] = assay: Experiment 3: roflumilast-mediated weight loss, leukocytosis and neutrophilia in rats, with or without SC-560 or lumiracoxib; type: in vivo, rat; conditions: for leukocytosis (white blood cells, FIG. 2B on the left) / neutrophilia (neutrophils in % of white blood cells, FIG. 2B on the right): 95 hours after t0; for leukocytosis (white blood cells, FIG. 2B on the left) / neutrophilia (neutrophils in % of white blood cells, FIG. 2B on the right) / weight loss (body weight as percentage change from t0, FIG. 2A): p.o. for four days, roflumilast 10 mg/kg at 1300, SC-560 or lumiracoxib 2 mg/kg at 0800 and 1700, compared with control group
Method: as §1, §2, §3, §4
The average±standard deviation of the body weights at time t0 was 306±11 g.
At the end of the experiment (95 hours after t0 (=the time of the first administration on day 1, 0800 hours)) the proportion of white blood cells (×1000 cells/μl blood, FIG. 2B, left-hand Figure) and the proportion of neutrophils (in % of white blood cells, FIG. 2B, right-hand Figure) were determined from the blood of 5 of the rats from the individual groups.

[5] = NSAID 2 mg/kg at 0800 and 1700 co-administered with roflumilast 10 mg/kg at 1300, p.o. for four days
[6] = 95 hours after t0, p.o. for four days, roflumilast 10 mg/kg at 1300, diclofenac 1 mg/kg at 0800 and 1700, compared with control group

SMILES	Diarrhoea (male Wistar rats [1])	Mesentery: Proliferation of fibroblasts (male Wistar rats [1])	Mesentery: multifocal perivascular mononuclear infiltration (=inflammation parameter) (male Wistar rats [1])	Diarrhoea (male Wistar rats [2])	Mesentery: Proliferation of fibroblasts (male Wistar rats [2])	Mesentery: multifocal perivascular mononuclear infiltration (=inflammation parameter) (male Wistar rats [2])	rats which died between day 4 and day 5 of the experiment (male Wistar rats [3]; group of six rats, roflumilast 10 mg/kg p.o. daily)	leukocytosis (white blood cells, FIG. 2B on the left) (male Wistar rats [4])	neutrophilia (neutrophils in % of white blood cells, FIG. 2B on the right) (male Wistar rats [4])	weight loss (body weight as percentage change from t0, FIG. 2A) (male Wistar rats [4])	protective effect on roflumilast-mediated leukocytosis (male Wistar rats [4]; [5])	protective effect on roflumilast-mediated neutrophilia (male Wistar rats [4]; [5])	protective effect on roflumilast-mediated weight loss (male Wistar rats [4]; [5])	leukocytosis (white blood cells, FIG. 1B on the left) (male Wistar rats [3]; [6])	neutrophilia (neutrophils in % of white blood cells, FIG. 1B on the right) (male Wistar rats [3]; [6])	weight loss (body weight as percentage change from t0, FIG. 1A) (male Wistar rats [3]; p.o. for four days, roflumilast 10 mg/kg at 1300, diclofenac 1 mg/kg at 0800 and 1700, compared with control group)
O=C(Nc1c(Cl)cncc1Cl)c1ccc(OC(F)F)c(OCC2CC2)c1 [roflumilast]	2/6	5/5	5/5	5/6	4/4	4/4	one rat	observed	observed	observed	–	–	–	–	–	–
Cc1ccc(Nc2c(F)cccc2Cl)c(CC(=O)O)c1 [lumiracoxib]	0/6	0/5	0/5	–	–	–	–	very similar to the control groups	very similar to the control groups	very similar to the control groups	–	–	–	–	–	–
COc1ccc(-n2nc(C(F)(F)F)cc2-c2ccc(Cl)cc2)cc1 [SC-560]	0/6	–	–	–	–	–	–	very similar to the control groups	very similar to the control groups	very similar to the control groups	absolutely no protective effect	absolutely no protective effect	absolutely no protective effect	–	–	–
O=C(O)Cc1ccccc1Nc1c(Cl)cccc1Cl [diclofenac]	–	–	–	0/6	0/5	0/5	–	–	–	–	–	–	–	very similar to the control groups	very similar to the control groups	very similar to the control groups
